Measured values published in US11911356B2, “Regulation of mutant TERT by BRAF V600E/map kinase pathway through FOS/GABP in human cancer” (THE JOHNS HOPKINS UNIVERSITY, priority 2017, dated 2024).

System: TERT promoter
Assay: TERT promoter luciferase reporter assay in K1 cells
Type: cell-based, human
Conditions: K1 cells harboring BRAF V600E; PLX4032 0.5 uM
Experimental: FIG. 2A-2G. BRAF V600E/MAPK pathway regulated TERT expression. (FIG. 2A) TERT expression was analyzed by qRT-PCR in cells treated with 0.5 uM PLX4032 or 0.2 uM AZD6244 for 24 hours (upper panel). The corresponding levels of phosphorylated ERK (p-ERK), total ERK (t-ERK), and beta-actin were detected by Western blotting (lower panel). The relative TERT mRNA expression levels were normalized to the DMSO control group. (FIG. 2B) Luciferase reporting assay of TERT promoter activities in K1 cells treated with DMSO or PLX4032 (0.5 uM). (FIG. 2C, 2D) Specific shRNA against BRAF were used to knock down BRAF in thyroid cancer cell lines BCPAP and K1 and melanoma cell line A375. Scramble shRNA was used as control. Cells were then subjected to Western blotting (FIG. 2C) and qRT-PCR (FIG. 2D). […]
For promoter activity assay, cells were seeded in triplicate into a 24-well plate and then transfected with 300 ng pGL3 plasmids containing the TERT, GAPBA, or GABPB promoter, together with 12 ng Renilla luciferase (pRL-TK) plasmid (normalizing control) using Lipofectamine 3000 (Invitrogen). At 24 hours after the transfection, cells were lysed and luciferase activities were measured using the Dual-Luciferase Reporter Assay System (Promega). Results were presented as relative luciferase activities, which were obtained by dividing firefly luciferase values with Renilla luciferase values for each set of reading.

CCCS(=O)(=O)Nc1ccc(F)c(C(=O)c2c[nH]c3ncc(-c4ccc(Cl)cc4)cc23)c1F [PLX4032]
activities of the mutated TERT promoter (C228T or C250T): dramatically reduced
activity of the wild-type TERT promoter: limited effect
